Measurements as given in patent US10065956B2, “Ethynyl derivatives” (Hoffmann-La Roche Inc., priority 2015, dated 2018).
Each block holds one compound with its values, some of them ahead of it.

Key:
mice [1] = conditions: mice treated with MPTP; cited from earlier work
mice [2] = conditions: reported by Addex 2010; cited from earlier work
mice [3] = conditions: reported by Addex 2010; cited from earlier work; remark: listed apart in the source
rats = conditions: cited from earlier work
rodent = conditions: 6-OHDA rodent model of PD; cited from earlier work
human mGlu4 receptor = molecular target: T1, human mGlu4 receptor (Homo sapiens, UniProt Q14833); assay: Ca2+ mobilization in vitro assay on recombinant human mGlu4 expressed in HEK293 cells (PAM, L-AP4 at EC20); type: cell-based; conditions: for Emax: HEK293, maximal response in % of the maximal stimulatory effect obtained with saturating concentrations of L-AP4, read-out: Eff. (%); for EC50: HEK293 cells expressing human mGlu4, L-AP4 added at EC20
T1 construct: expressed in transfected cells; host or cells: monoclonal HEK-293 cell line, stably transfected
T1 sequence (Q14833 33-912): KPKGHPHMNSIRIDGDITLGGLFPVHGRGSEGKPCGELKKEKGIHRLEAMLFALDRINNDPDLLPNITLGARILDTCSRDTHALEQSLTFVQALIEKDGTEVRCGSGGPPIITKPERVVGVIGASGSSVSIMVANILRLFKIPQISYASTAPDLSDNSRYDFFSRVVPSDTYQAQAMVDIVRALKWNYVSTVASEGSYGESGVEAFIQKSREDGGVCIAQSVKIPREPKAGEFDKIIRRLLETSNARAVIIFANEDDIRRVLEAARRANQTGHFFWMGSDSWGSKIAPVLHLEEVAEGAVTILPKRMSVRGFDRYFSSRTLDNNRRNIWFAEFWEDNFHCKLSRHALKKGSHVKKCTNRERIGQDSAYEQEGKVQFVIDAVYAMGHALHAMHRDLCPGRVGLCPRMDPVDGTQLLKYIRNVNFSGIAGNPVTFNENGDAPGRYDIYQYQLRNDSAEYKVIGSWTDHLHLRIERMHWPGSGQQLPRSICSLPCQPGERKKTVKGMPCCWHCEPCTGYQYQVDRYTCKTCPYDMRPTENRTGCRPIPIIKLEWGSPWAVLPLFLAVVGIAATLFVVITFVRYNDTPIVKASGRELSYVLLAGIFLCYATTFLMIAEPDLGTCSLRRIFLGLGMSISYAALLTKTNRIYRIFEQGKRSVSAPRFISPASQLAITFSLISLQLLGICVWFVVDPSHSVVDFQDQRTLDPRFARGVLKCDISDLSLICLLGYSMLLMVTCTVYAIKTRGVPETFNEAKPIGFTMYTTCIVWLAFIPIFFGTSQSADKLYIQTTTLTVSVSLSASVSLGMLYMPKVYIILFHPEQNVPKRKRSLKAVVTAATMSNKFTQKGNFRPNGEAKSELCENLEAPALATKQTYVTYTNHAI

Structure (SMILES): O=C(Nc1ccccc1)C12CC1/C(=N\O)c1ccccc1O2 (single isomer, unassigned; (-)) [(−)-PHCCC]
nigrostriatal degeneration (mice [1]): reduced nigrostriatal degeneration

Structure (SMILES): Cc1ccnc(Nc2nc(-c3cn[nH]c3)c(C)s2)n1 [ADX88178]
activity in marble burying test (mice [2]): active | activity in EPM (mice [3]): active | profile in the rat EPM test (rats; rat, after oral dosing): anxiolytic-like profile | activity in EPM (rats; rats, reported by Addex 2010): active

Structure (SMILES): N[C@@H](CCP(=O)(O)O)C(=O)O [L-AP4, (2S)-2-amino-4-phosphonobutanoic acid]
neuroprotection in 6-OHDA model (rodent): neuroprotective effects

Structure (SMILES): CCn1cc([C@]2(C)CC(=O)N(c3c(F)cc(C#Cc4ccccc4)cc3F)C(=O)N2C)cn1 [Example 13, (6S)-3-[2,6-Difluoro-4-(2-phenylethynyl)phenyl]-6-(1-ethylpyrazol-4-yl)-1,6-dimethyl-hexahydropyrimidine-2,4-dione]
Emax (human mGlu4 receptor): 115% | EC50 (human mGlu4 receptor): 64 nM

Structure (SMILES): CN1C(=O)N(c2c(F)cc(C#Cc3ccccc3)cc2F)C(=O)C[C@@]1(C)c1cncn1C [Example 11, (6S)-3-[2,6-Difluoro-4-(2-phenylethynyl)phenyl]-1,6-dimethyl-6-(3-methylimidazol-4-yl)hexahydropyrimidine-2,4-dione]
Emax (human mGlu4 receptor): 91% | EC50 (human mGlu4 receptor): 59 nM

Structure (SMILES): CN1C(=O)N(c2c(F)cc(C#Cc3ccccc3)cc2F)C(=O)C[C@@]1(C)c1ccnn1C [Example 7, (6S)-3-[2,6-Difluoro-4-(2-phenylethynyl)phenyl]-1,6-dimethyl-6-(2-methylpyrazol-3-yl)hexahydropyrimidine-2,4-dione]
Emax (human mGlu4 receptor): 100% | EC50 (human mGlu4 receptor): 147 nM

Other lines, results leading:

Emax (human mGlu4 receptor): 142% | EC50 (human mGlu4 receptor): 55 nM
Structure (SMILES): CN1C(=O)N(c2c(F)cc(C#Cc3ccc(F)cc3)cc2F)C(=O)C[C@@]1(C)c1cnn(C)c1 [Example 49, (6S)-3-[2,6-Difluoro-4-[2-(4-fluorophenyl)ethynyl]phenyl]-1,6-dimethyl-6-(1-methylpyrazol-4-yl)hexahydropyrimidine-2,4-dione]

Emax (human mGlu4 receptor): 110% | EC50 (human mGlu4 receptor): 63 nM
Structure (SMILES): CN1C(=O)N(c2c(F)cc(C#Cc3ccccc3)cc2F)C(=O)C[C@@]1(C)c1cnn(CC2COC2)c1 [Example 61, (6S)-3-[2,6-Difluoro-4-(2-phenylethynyl)phenyl]-1,6-dimethyl-6-[1-(oxetan-3-ylmethyl)pyrazol-4-yl]hexahydropyrimidine-2,4-dione]

Emax (human mGlu4 receptor): 143% | EC50 (human mGlu4 receptor): 44 nM
Structure (SMILES): CN1C(=O)N(c2c(F)cc(C#Cc3ccc(F)cc3F)cc2F)C(=O)C[C@@]1(C)c1cn[nH]c1 [Example 56, (6S)-3-[4-[2-(2,4-Difluorophenyl)ethynyl]-2,6-difluoro-phenyl]-1,6-dimethyl-6-(1H-pyrazol-4-yl)hexahydropyrimidine-2,4-dione]

Emax (human mGlu4 receptor): 135% | EC50 (human mGlu4 receptor): 27 nM
Structure (SMILES): CN1C(=O)N(c2c(F)cc(C#Cc3ccc(F)cc3)cc2F)C(=O)C[C@@]1(C)c1cn[nH]c1 [Example 54, (6S)-3-[2,6-Difluoro-4-[2-(4-fluorophenyl)ethynyl]phenyl]-1,6-dimethyl-6-(1H-pyrazol-4-yl)hexahydropyrimidine-2,4-dione]
